The term IC50 denotes the concentration that inhibits the measured activity by half.

This assay concerns the target T1, recombinant HsEg5 motor domain (amino acids 1-369-8His) (Homo sapiens, UniProt P52732).
T1 construct: Enzyme was recombinant HsEg5 motor domain (amino acids 1-369-8His); 8His (C)
T1 sequence (P52732 1-369): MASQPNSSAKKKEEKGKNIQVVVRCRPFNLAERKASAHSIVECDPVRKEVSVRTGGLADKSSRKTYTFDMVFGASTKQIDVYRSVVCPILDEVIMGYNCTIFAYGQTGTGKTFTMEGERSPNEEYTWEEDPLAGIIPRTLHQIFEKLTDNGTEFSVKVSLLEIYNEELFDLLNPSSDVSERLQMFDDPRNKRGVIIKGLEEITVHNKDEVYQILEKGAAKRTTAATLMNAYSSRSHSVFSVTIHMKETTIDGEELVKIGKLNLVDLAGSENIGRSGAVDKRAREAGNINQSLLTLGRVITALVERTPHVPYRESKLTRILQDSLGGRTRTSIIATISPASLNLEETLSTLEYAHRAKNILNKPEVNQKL
The experiment in a line: Malachite Green Assay (Eg5 motor ATPase, phosphate liberated from ATP). Type of assay: biochemical. The procedure: Enzymatic activity of the Eg5 motor and effects of inhibitors was measured using a malchite green assay, which measures phosphate liberated from ATP, and has been used previously to measure the activity of kinesin motors (Hackney and Jiang, 2001). Enzyme was recombinant HsEg5 motor domain (amino acids 1-369-8His) and was added at a final concentration of 6 nM to 100 μl reactions. Buffer consisted of 25 mM PIPES/KOH, pH 6.8, 2 mM MgCl2, 1 mM EGTA, 1 mM dtt, 0.01% Triton X-100 and 5 μM paclitaxel. Malachite green/ammonium molybdate reagent was prepared as follows: for 800 ml final volume, 0.27 g of Malachite Green (J. T. Baker) was dissolved in 600 ml of H2O in a polypropylene bottle. […]
5 μl of compound diluted in 12% DMSO was added to the wells of 96 well plates. […] The reactions were then quenched by the addition of 150 μl malachite green/ammonium molybdate reagent, and absorbance read at 650 nanometers exactly 5 min after quench using a Spectramax Plus plate reader (Molecular Devices). Data was graphed and IC50s calculated using ExCel Fit (Microsoft).
Enzymatic activity of the Eg5 motor and effects of inhibitors was measured using a malachite green assay, which measures phosphate liberated from ATP, and has been used previously to measure the activity of kinesin motors (Hackney and Jiang, 2001). […] Data was graphed and IC50s calculated using ExCel Fit (Microsoft).

SMILES strings stand for the structures.

On to `CCC(c1nc2snc(C)c2c(=O)n1Cc1ccccc1)N(CCCN)C(=O)c1cccc(Cl)c1Cl` (single isomer, unassigned; (+)) [Section 3: Example A7, (+) N-(3-Amino-propyl)-N-[1-(5-benzyl-3-methyl-4-oxo-4,5-dihydro-isothiazolo[5,4-d]pyrimidin-6-yl)-propyl]-2,3-dichloro-benzamide hydrogen chloride], for which the IC50 was 136 nM. Regarding `CCC(c1nc2c(C)nsc2c(=O)n1Cc1ccccc1)N(CCCN)C(=O)c1ccc(C)cc1` (centres unmarked) [Section 2: Example E1, N-(3-Amino-propyl)-N-[1-(6-benzyl-3-methyl-7-oxo-6,7-dihydro-isothiazolo[4,5-d]pyrimidin-5-yl)-propyl]-4-methyl-benzamide hydrogen chloride], the IC50 was found to be 90 nM.

The values above are taken from patent publication US20060063751A1, “Novel fused heterocycles and uses thereof” (AstraZeneca AB, priority 2003, published 2006).
